Patent US11649255B2, “Indazoles as hematopoietic progenitor kinase 1 (HPK1) inhibitors and methods using same” (1st Biotherapeutics, Inc., priority 2020, dated 2023)

Molecular target: recombinant human HPK1 (Homo sapiens (Human), UniProt Q92918)
Assay: HPK1 kinase assay (ADP-Glo)
Format: biochemical
Settings: 25 μM ATP, MBP substrate
In short: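 Activity was read as ADP formed, detected by ADP-Glo luminescence after the reaction of 5 ng recombinant human HPK1 with MBP and ATP (stocks 0.5 μg/μl and 25 μM) for 40 min at 30 °C. Buffer was Tris pH 7.5 with MgCl2, BSA and DTT, with compound in 0.5% DMSO. IC50 came from inhibition curves.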

Chain of recombinant human HPK1 (Q92918 whole entry): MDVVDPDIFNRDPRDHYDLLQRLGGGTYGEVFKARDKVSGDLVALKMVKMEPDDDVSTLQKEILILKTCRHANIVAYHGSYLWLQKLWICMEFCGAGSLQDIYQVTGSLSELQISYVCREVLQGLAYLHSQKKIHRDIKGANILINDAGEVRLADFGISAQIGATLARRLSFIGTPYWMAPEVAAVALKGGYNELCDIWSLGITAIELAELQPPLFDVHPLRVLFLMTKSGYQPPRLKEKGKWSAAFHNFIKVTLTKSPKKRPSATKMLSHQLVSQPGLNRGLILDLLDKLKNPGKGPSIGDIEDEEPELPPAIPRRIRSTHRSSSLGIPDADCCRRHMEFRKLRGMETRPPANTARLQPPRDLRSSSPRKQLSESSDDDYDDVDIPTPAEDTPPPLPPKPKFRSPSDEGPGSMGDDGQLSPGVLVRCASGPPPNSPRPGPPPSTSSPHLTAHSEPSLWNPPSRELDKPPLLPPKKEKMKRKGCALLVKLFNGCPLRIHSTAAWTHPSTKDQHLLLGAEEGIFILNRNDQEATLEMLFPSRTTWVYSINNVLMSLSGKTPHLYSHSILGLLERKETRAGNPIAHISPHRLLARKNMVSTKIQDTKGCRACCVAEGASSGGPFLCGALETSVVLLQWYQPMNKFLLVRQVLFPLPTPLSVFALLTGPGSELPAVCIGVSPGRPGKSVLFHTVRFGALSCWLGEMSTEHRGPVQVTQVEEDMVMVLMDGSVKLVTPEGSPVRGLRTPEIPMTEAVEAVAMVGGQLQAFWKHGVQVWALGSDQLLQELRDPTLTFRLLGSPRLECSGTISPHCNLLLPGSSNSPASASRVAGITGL

| IC50 [nM] | Compound |
| --- | --- |
| < 100 | CCOc1c(F)cc2[nH]ncc2c1-c1ccn2nc(NC(=O)[C@@H]3C[C@@H]3F)cc2c1 [Example 578, (1S,2S)-N-(5-(5-ethoxy-6-fluoro-1H-indazol-4-yl)pyrazolo[1,5-a]pyridin-2-yl)-2-fluorocyclopropane-1-carboxamide] |
| < 100 | CNC(=O)OCCN(C)c1c(F)c(C)c(-c2ccn3nc(NC(=O)[C@@H]4C[C@@H]4F)cc3c2)c2cn[nH]c12 [Example 580, 2-((6-fluoro-4-(2-((1S,2S)-2-fluorocyclopropane-1-carboxamido)pyrazolo[1,5-a]pyridin-5-yl)-5-methyl-1H-indazol-7-yl)(methyl)amino)ethyl methylcarbamate] |
| < 100 | O=C(Nc1cc2cc(-c3c(Cl)c(F)c(C(F)F)c4[nH]ncc34)ccn2n1)[C@@H]1C[C@@H]1F [Example 581, (1S,2S)-N-(5-(5-chloro-7-(difluoromethyl)-6-fluoro-1H-indazol-4-yl)pyrazolo[1,5-a]pyridin-2-yl)-2-fluorocyclopropane-1-carboxamide] |
| < 100 | Cc1c(F)c(C#N)c2[nH]ncc2c1-c1ccn2nc(NC(=O)[C@@H]3C[C@@H]3F)cc2c1 [Example 582, (1S,2S)-N-(5-(7-cyano-6-fluoro-5-methyl-1H-indazol-4-yl)pyrazolo[1,5-a]pyridin-2-yl)-2-fluorocyclopropane-1-carboxamide] |
| < 100 | CN(C)c1c(F)cc(-c2ccn3nc(NC(=O)[C@@H]4C[C@@H]4F)cc3c2)c2cn[nH]c12 [Example 583, (1S,2S)-N-(5-(7-(dimethylamino)-6-fluoro-1H-indazol-4-yl)pyrazolo[1,5-a]pyridin-2-yl)-2-fluorocyclopropane-1-carboxamide] |
| 101 to 500 | CNC(=O)c1c(F)c(C)c(-c2ccn3nc(NC(=O)[C@@H]4C[C@@H]4F)cc3c2)c2cn[nH]c12 [Example 584, 6-fluoro-4-(2-((1S,2S)-2-fluorocyclopropane-1-carboxamido)pyrazolo[1,5-a]pyridin-5-yl)-N,5-dimethyl-1H-indazole-7-carboxamide] |
| < 100 | CCc1c(F)c(C(F)(F)F)c2[nH]ncc2c1-c1ccn2nc(NC(=O)[C@@H]3C[C@@H]3F)cc2c1 [Example 585, (1S,2S)-N-(5-(5-ethyl-6-fluoro-7-(trifluoromethyl)-1H-indazol-4-yl)pyrazolo[1,5-a]pyridin-2-yl)-2-fluorocyclopropane-1-carboxamide] |
| < 100 | N#Cc1c(F)c(Cl)c(-c2ccn3nc(NC(=O)[C@@H]4C[C@@H]4F)cc3c2)c2cn[nH]c12 [Example 586, (1S,2S)-N-(5-(5-chloro-7-cyano-6-fluoro-1H-indazol-4-yl)pyrazolo[1,5-a]pyridin-2-yl)-2-fluorocyclopropane-1-carboxamide] |
| < 100 | O=C(Nc1cc2cc(-c3cc(F)c(OC(F)(F)F)c4[nH]ncc34)ccn2n1)[C@@H]1C[C@@H]1F [Example 587, (1S,2S)-2-fluoro-N-(5-(6-fluoro-7-(trifluoromethoxy)-1H-indazol-4-yl)pyrazolo[1,5-a]pyridin-2-yl)cyclopropane-1-carboxamide] |
| < 100 | CSc1c(F)cc(-c2ccn3nc(NC(=O)[C@@H]4C[C@@H]4F)cc3c2)c2cn[nH]c12 [Example 589, (1S,2S)-2-fluoro-N-(5-(6-fluoro-7-(methylthio)-1H-indazol-4-yl)pyrazolo[1,5-a]pyridin-2-yl)cyclopropane-1-carboxamide] |
| < 100 | Cc1c(F)c(C(F)F)c2[nH]ncc2c1-c1ccn2nc(NC(=O)[C@@H]3C[C@@H]3F)cc2c1 [Example 591, (1S,2S)-N-(5-(7-(difluoromethyl)-6-fluoro-5-methyl-1H-indazol-4-yl)pyrazolo[1,5-a]pyridin-2-yl)-2-fluorocyclopropane-1-carboxamide] |
| < 100 | Cc1c(F)c(OC(F)(F)F)c2[nH]ncc2c1-c1ccn2nc(NC(=O)[C@@H]3C[C@@H]3F)cc2c1 [Example 592, (1S,2S)-2-fluoro-N-(5-(6-fluoro-5-methyl-7-(trifluoromethoxy)-1H-indazol-4-yl)pyrazolo[1,5-a]pyridin-2-yl)cyclopropane-1-carboxamide] |
| < 100 | CSc1ccc(-c2ccn3nc(NC(=O)[C@@H]4C[C@@H]4F)cc3c2)c2cn[nH]c12 [Example 593, (1S,2S)-2-fluoro-N-(5-(7-(methylthio)-1H-indazol-4-yl)pyrazolo[1,5-a]pyridin-2-yl)cyclopropane-1-carboxamide] |
| < 100 | Cn1nnnc1-c1c(F)c(Cl)c(-c2ccn3nc(NC(=O)[C@@H]4C[C@@H]4F)cc3c2)c2cn[nH]c12 [Example 594, (1S,2S)-N-(5-(5-chloro-6-fluoro-7-(1-methyl-1H-tetrazol-5-yl)-1H-indazol-4-yl)pyrazolo[1,5-a]pyridin-2-yl)-2-fluorocyclopropane-1-carboxamide] |
| 101 to 500 | CN(C)c1ccc(-c2ccn3nc(NC(=O)[C@@H]4C[C@@H]4F)cc3c2)c2cn[nH]c12 [Example 595, (1S,2S)-N-(5-(7-(dimethylamino)-1H-indazol-4-yl)pyrazolo[1,5-a]pyridin-2-yl)-2-fluorocyclopropane-1-carboxamide] |
| < 100 | CN(c1ncccn1)c1c(F)c(Cl)c(-c2ccn3nc(NC(=O)[C@@H]4C[C@@H]4F)cc3c2)c2cn[nH]c12 [Example 596, (1S,2S)-N-(5-(5-chloro-6-fluoro-7-(methyl(pyrimidin-2-yl)amino)-1H-indazol-4-yl)pyrazolo[1,5-a]pyridin-2-yl)-2-fluorocyclopropane-1-carboxamide] |
| < 100 | CSc1c(F)c(F)c2[nH]ncc2c1-c1ccn2nc(NC(=O)[C@H]3C[C@H]3F)cc2c1 [Example 598, (1R,2R)-N-(5-(6,7-difluoro-5-(methylthio)-1H-indazol-4-yl)pyrazolo[1,5-a]pyridin-2-yl)-2-fluorocyclopropane-1-carboxamide] |
| < 100 | CSc1c(F)c(F)c2[nH]ncc2c1-c1ccn2nc(NC(=O)[C@@H]3C[C@H]3F)cc2c1 [Example 599, (1S,2R)-N-(5-(6,7-difluoro-5-(methylthio)-1H-indazol-4-yl)pyrazolo[1,5-a]pyridin-2-yl)-2-fluorocyclopropane-1-carboxamide] |
| < 100 | CSc1c(F)c(F)c2[nH]ncc2c1-c1ccn2nc(NC(=O)[C@H]3C[C@@H]3F)cc2c1 [Example 600, (1R,2S)-N-(5-(6,7-difluoro-5-(methylthio)-1H-indazol-4-yl)pyrazolo[1,5-a]pyridin-2-yl)-2-fluorocyclopropane-1-carboxamide] |
| < 100 | O=C(Nc1cc2cc(-c3c(Cl)c(F)c(Nc4ncccn4)c4[nH]ncc34)ccn2n1)[C@@H]1C[C@@H]1F [Example 601, (1S,2S)-N-(5-(5-chloro-6-fluoro-7-(pyrimidin-2-ylamino)-1H-indazol-4-yl)pyrazolo[1,5-a]pyridin-2-yl)-2-fluorocyclopropane-1-carboxamide] |
| < 100 | CCc1c(F)c(SC(C)(C)C#N)c2[nH]ncc2c1-c1ccn2nc(NC(=O)[C@@H]3C[C@@H]3F)cc2c1 [Example 603, (1S,2S)-N-(5-(7-((2-cyanopropan-2-yl)thio)-5-ethyl-6-fluoro-1H-indazol-4-yl)pyrazolo[1,5-a]pyridin-2-yl)-2-fluorocyclopropane-1-carboxamide] |
| 101 to 500 | CN(C)C(=O)c1c(F)cc(-c2ccn3nc(NC(=O)[C@@H]4C[C@@H]4F)cc3c2)c2cn[nH]c12 [Example 604, 6-fluoro-4-(2-((1S,2S)-2-fluorocyclopropane-1-carboxamido)pyrazolo[1,5-a]pyridin-5-yl)-N,N-dimethyl-1H-indazole-7-carboxamide] |
